Source: paper PMC6910976 (ACS infectious diseases, 2019)

The compounds below were run against T1, LdtA (Mycolicibacterium smegmatis, UniProt A0QY44) (assay: UPLC-high resolution MS of intact protein). Details: covalent; 2 uM enzyme, 50 uM drug, 25 mM Tris pH 8.0, 5 h, 20 °C.
T1 sequence (A0QY44 41-259): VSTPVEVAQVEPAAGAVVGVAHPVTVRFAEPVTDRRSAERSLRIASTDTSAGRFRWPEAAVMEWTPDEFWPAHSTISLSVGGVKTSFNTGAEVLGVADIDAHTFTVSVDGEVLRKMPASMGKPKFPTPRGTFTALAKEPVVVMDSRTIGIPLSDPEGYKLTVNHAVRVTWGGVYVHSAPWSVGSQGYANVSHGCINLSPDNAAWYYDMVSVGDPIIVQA
Format: binding

Row | Structure (SMILES) | UPLC-high resolution MS of intact protein
1 | C[C@@H](O)[C@H]1C(=O)N2C(C(=O)[O-])=C(SC3Cn4cnc[n+]4C3)[C@H](C)[C@H]12 (stereo partly shown) [biapenem] | fully acylated by the (carba)penems faropenem, biapenem, doripenem, and meropenem
2 | C[C@@H](O)[C@H]1C(=O)N2C(C(=O)O)=C([C@H]3CCCO3)S[C@H]12 [faropenem] | fully acylated by the (carba)penems faropenem, biapenem, doripenem, and meropenem
3 | C[C@@H](O)[C@H]1C(=O)N2C(C(=O)O)=C(S[C@@H]3CN[C@H](C(=O)N(C)C)C3)[C@H](C)[C@H]12 [meropenem] | fully acylated by the (carba)penems faropenem, biapenem, doripenem, and meropenem

These compounds were tested against T2, LdtF (Mycolicibacterium smegmatis, UniProt A0QS24) (assay: UPLC-high resolution MS of intact protein). Details: covalent; 2 uM enzyme, 50 uM drug, 25 mM Tris pH 8.0, 5 h, 20 °C.
T2 sequence (A0QS24 31-420): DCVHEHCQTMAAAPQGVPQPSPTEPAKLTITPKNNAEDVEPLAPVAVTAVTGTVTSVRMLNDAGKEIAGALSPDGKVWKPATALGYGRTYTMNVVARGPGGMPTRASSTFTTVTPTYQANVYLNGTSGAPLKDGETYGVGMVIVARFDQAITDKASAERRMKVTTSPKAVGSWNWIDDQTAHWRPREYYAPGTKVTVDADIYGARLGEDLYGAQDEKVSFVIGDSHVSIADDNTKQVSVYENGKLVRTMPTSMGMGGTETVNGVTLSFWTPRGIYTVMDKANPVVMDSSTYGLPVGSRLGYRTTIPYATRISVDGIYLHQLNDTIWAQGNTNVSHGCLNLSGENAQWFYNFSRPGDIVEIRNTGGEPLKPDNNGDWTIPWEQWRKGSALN
Format: binding

Row | Structure (SMILES) | UPLC-high resolution MS of intact protein
4 | C[C@@H](O)[C@H]1C(=O)N2C(C(=O)[O-])=C(SC3Cn4cnc[n+]4C3)[C@H](C)[C@H]12 (stereo partly shown) [biapenem] | small amounts of apo-LdtF remained following incubation with biapenem, doripenem, and faropenem
5 | C[C@@H](O)[C@H]1C(=O)N2C(C(=O)O)=C(S[C@@H]3CN[C@H](CNS(N)(=O)=O)C3)[C@H](C)[C@H]12 [doripenem] | small amounts of apo-LdtF remained following incubation with biapenem, doripenem, and faropenem
6 | C[C@@H](O)[C@H]1C(=O)N2C(C(=O)O)=C([C@H]3CCCO3)S[C@H]12 [faropenem] | small amounts of apo-LdtF remained following incubation with biapenem, doripenem, and faropenem
7 | C[C@@H](O)[C@H]1C(=O)N2C(C(=O)O)=C(S[C@@H]3CN[C@H](C(=O)N(C)C)C3)[C@H](C)[C@H]12 [meropenem] | only meropenem completely acylates LdtF under the same conditions

Each compound was assayed against T3, LdtB (Mycolicibacterium smegmatis, UniProt A0R1G6) (assay: UPLC-high resolution MS of intact protein). Details: covalent; 2 uM enzyme, 50 uM drug, 25 mM Tris pH 8.0, 5 h, 20 °C.
T3 sequence (A0R1G6 27-400): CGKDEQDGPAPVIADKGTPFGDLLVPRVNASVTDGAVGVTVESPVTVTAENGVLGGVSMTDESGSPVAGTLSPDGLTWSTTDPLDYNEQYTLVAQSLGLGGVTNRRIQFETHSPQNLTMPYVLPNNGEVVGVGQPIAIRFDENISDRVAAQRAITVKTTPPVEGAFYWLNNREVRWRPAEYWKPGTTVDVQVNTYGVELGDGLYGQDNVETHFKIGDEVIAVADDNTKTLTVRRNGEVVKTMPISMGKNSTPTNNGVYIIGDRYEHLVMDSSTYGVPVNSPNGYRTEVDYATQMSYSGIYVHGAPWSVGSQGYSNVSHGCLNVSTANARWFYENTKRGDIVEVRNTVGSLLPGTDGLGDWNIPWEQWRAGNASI
Format: binding

Row | Structure (SMILES) | UPLC-high resolution MS of intact protein
8 | C[C@@H](O)[C@H]1C(=O)N2C(C(=O)[O-])=C(SC3Cn4cnc[n+]4C3)[C@H](C)[C@H]12 (stereo partly shown) [biapenem] | fully acylated by the (carba)penems faropenem, biapenem, doripenem, and meropenem
9 | C[C@@H](O)[C@H]1C(=O)N2C(C(=O)O)=C([C@H]3CCCO3)S[C@H]12 [faropenem] | fully acylated by the (carba)penems faropenem, biapenem, doripenem, and meropenem
10 | C[C@@H](O)[C@H]1C(=O)N2C(C(=O)O)=C(S[C@@H]3CN[C@H](C(=O)N(C)C)C3)[C@H](C)[C@H]12 [meropenem] | fully acylated by the (carba)penems faropenem, biapenem, doripenem, and meropenem
